Test results: patent US20230309522A1, “ANIMAL MODEL, METHODS FOR MAKING AND USING THEREOF, AND COMPOSITION FOR TREATING ATAXIA” (priority 2022, published 2023)
Marks after values point to notes of the source that are not given here.

How the values were obtained:
Format in all cases: in vivo, mouse
C57BU6J mice [1] = test: Determining the least concentration of 3AP for induction of ataxia-like behaviors: survival time
Procedure: Six to seven-week-old C57BU6J and B6.129-Arnt1^tm1Bra/J (Bmal1 gene-deficient mice) male mice were used for all experiments described hereinafter. All experiments were performed on mice anesthetized by an intraperitoneal (i.p.) injection of 100 mg ketamine/kg and 20 mg xylazine/kg, based on their body weights.
In this example, a chemically-induced ataxia animal model was established upon systematic application of 3AP^19,20. Besides systematic (i.e. intraperitoneal, i.p., injection), local injection [in cerebellum, coordinate (Bregma): −7.08, 0, −2.1] of 3AP in C57BU6J mice could also be used to generate the chemically-induced ataxia animal models^23-25. Initially, different concentrations of 3AP were applied for determining the least concentration of 3AP for life-long induction of ataxia-like behaviors (Table 1).

C57BU6J mice [2] = test: Footprint test on 3AP-induced ataxia mice
Source text: (§1) Four different behavior tests were used in the present disclosure: footprint, irregular ladder, rotarod and body balance (elevated beam) tests. These behavior tests have been widely used for detection of ataxia^40-42. Two different time durations were used to differentiate the peak and trough expressions of the Bmal1 gene. i.e., daytime described herein refers to seven hours later after light exposure (˜2 pm); nighttime described herein refers to four hours later after dim light ([…]). These behavior tests were carried out at daytime (˜2 pm) and nighttime (˜11 pm), given the differential expression of Bmal1 in cerebellum having the highest level at ˜2 pm and the lowest level at ˜11 pm.
Footprint test: Three measurements were included: i) front paw distance; ii) hind paw distance; and iii) stride. The footprint behavior tool was custom-made to have a narrow, foot-printable glass plate with the length of 85 cm and the width of 5 cm. Each paw distance was measured with footsteps printed during the walking across the narrow road.

C57BU6J mice [3] = test: Irregular ladder test on 3AP-induced ataxia mice
Source text: as §1
Irregular ladder test: A mouse was requested to walk through an irregularly arranged ladder with a distance of 85 cm and a width of 5 cm. Every single slip during walk steps was counted as a failure of gait and balance measurement.

C57BU6J mice [4] = test: Rotarod test on 3AP-induced ataxia mice; details: for motor learning, percentage change in rotarod performance: 3AP local; for rotarod-based motor behavior: 3AP-induced ataxia mice, FIG. 1C
Source text: as §1
Rotarod test: It has been widely used in determining general motor skills. In brief, mice walked on the rotarod with a width of 5 cm, a height of 20 cm and a diameter of 3 cm of rolling rods. The total time for mice to sustain on the rotarod in increasing speeds at a unit of revolution per minute (rpm) was taken for a measurement of motor skills such as balance and gait functions. Motor learning was calculated as a percentage change in the performance (at a maximum speed) over 5 min, 10 min or 15 min blocks sequentially.

C57BU6J mice [5] = test: Elevated beam test on 3AP-induced ataxia mice
Source text: as §1
Elevated beam test: Every single slip was counted during the walking^43. Mice were requested to walk through a wall with a distance of 40 cm, a height of 16 cm and a width of 0.5 cm. All tests were conducted in a quiet environment without noise and bright light disturbance.

Calbindin = test: Immunohistochemistry of cerebellar tissue, relative calbindin intensity; details: 3AP-injected mice, relative to WT 1.00, FIG. 3C
Procedure: (§2) The cerebellar tissue was isolated from anesthetized mice (six weeks old) and fixed with paraformaldehyde in […] (Thermofisher scientific, USA) and overnight at 4° C. The cerebellar tissue was then dehydrated by being incubated with PBS containing 30% sucrose at 4° C. then embedded in optimal cutting temperature (OCT) medium (Thermofisher scientific, USA) and frozen by using dry ice. The frozen tissues were cut with a cryostat (Thermo HM525NX Cryostat with UV Disinfection, Thermofisher scientific, USA) at 20 µm thickness and slices were placed on glass slides (Thermofisher scientific, USA). For immunohistochemical analysis, cerebellar tissue specimens were washed with PBS for 30 min and blocked with 10% bovine serum albumin (Sigma-Aldrich, USA) in PBST for 30 min at room temperature and then incubated with respective primary antibodies (Calbindin [8 μg/mL]: Invitrogen, USA; Tyrosine Hydrolase [1:400]: Invitrogen. USA) for overnight at 4° C. The specimens were further incubated with secondary antibodies (1:1500, Invitrogen. USA) for overnight at 4° C. […] The DAPI intensity and primary antibody (Calbindin or Tyrosine Hydrolase) intensity were recorded. The relative primary antibody intensity was calculated based on the following formula: […]

Tyrosine Hydrolase (TH) = test: Immunohistochemistry of substantia nigra compacta, Tyrosine Hydrolase expression; details: 3AP ataxia model vs wildtype, FIGS. 6A and 6B
Procedure: as §2

Bmal1 = test: Quantitative RT-PCR of brain regions, Bmal1 mRNA
Procedure: (§3) To prepare RNA by RT-PCR, mice were deeply anesthetized with isoflurane inhalation. […] Total RNA was extracted by TRIzol reagent-based procedure (Thermofisher scientific, USA) and quantified by NanoDrop 2000 spectrophotometer ([…], USA). The total RNA obtained (20 μg) was reverse-transcribed to synthesize complementary DNA (cDNA) using a first-strand cDNA synthesis kit (Takara. Japan). Quantitative assays were performed on each cDNA using the primers listed in Table 3 with SYBR® Premix Ex Taq™ (Takara, Japan) in the given cycling condition (95° C. for 30 seconds, 32 cycles of 95° C. for 5 seconds and 60° C. for 30 seconds), as provided by the manufacturer's instruction.

Clock = test: Quantitative RT-PCR of brain regions, Clock mRNA
Procedure: as §3

Cry1 = test: Quantitative RT-PCR of brain regions, Cry1 mRNA
Procedure: as §3

Per1 = test: Quantitative RT-PCR of brain regions, Per1 mRNA
Procedure: as §3

For `CC(=O)c1cccnc1` [3AP, 3-acetyl pyridine], the Survival time (C57BU6J mice [1]; 0.05 mg/kg, stereotaxic local injection to the cerebellum) was “No ataxia”, the Survival time (C57BU6J mice [1]; 0.1 mg/kg, stereotaxic local injection to the cerebellum) was over 120 h and the Survival time (C57BU6J mice [1]; 0.15 mg/kg, stereotaxic local injection to the cerebellum) was “No survive”. For the same compound, the Survival time (C57BU6J mice [1]; 0.2 mg/kg, stereotaxic local injection to the cerebellum) was “No survive”, the Survival time (C57BU6J mice [1]; 25 mg/kg, intraperitoneal systematic injection) was “No ataxia” and the Survival time (C57BU6J mice [1]; 35 mg/kg, intraperitoneal systematic injection) was over 120 h. For the same compound, the Survival time (C57BU6J mice [1]; 45 mg/kg, intraperitoneal systematic injection) was 24 h, the Survival time (C57BU6J mice [1]; 50 mg/kg, intraperitoneal systematic injection) was 8 h and the Survival time (C57BU6J mice [1]; 65 mg/kg, intraperitoneal systematic injection) was 3 h. For the same compound, the Survival time (C57BU6J mice [1]; 70 mg/kg, intraperitoneal systematic injection) was 0.25 h, the front paw distance (C57BU6J mice [2]; 35 mg/kg 3AP-injected mice, FIG. 1A, WT 1.084) was 0.832±0.112 cm and the hind paw distance (C57BU6J mice [2]; 35 mg/kg 3AP-injected mice, FIG. 1A, WT 2.09) was 4.67±0.208 cm. For the same compound, the stride (C57BU6J mice [2]; 35 mg/kg 3AP-injected mice, FIG. 1A, WT 5.27) was 1.11±0.088 cm, the hind paw distance (C57BU6J mice [2]; local 3AP-intoxicated mice without Bmal1 viral vector, FIG. 4C, wildtype 2.13) was 4.28±0.314 cm and the stride (C57BU6J mice [2]; local 3AP-intoxicated mice without Bmal1 viral vector, FIG. 4D, wildtype 5.02) was 1.10±0.124 cm. The front paw distance (C57BU6J mice [2]; local 3AP-intoxicated mice without Bmal1 viral vector, FIG. 4E, wildtype 1.12) was 1.10±0.053 cm, the “number of slips, irregular ladder” value (C57BU6J mice [3]; 3AP-induced ataxia mice, FIG. 1B, WT 1.61) was 8.92±0.178 and the “number of slips, irregular ladder” value (C57BU6J mice [3]; local 3AP-intoxicated mice without Bmal1 viral vector, FIG. 4F, wildtype 0.87) was 11.2±0.075. The “performance in the rotarod test” value (C57BU6J mice [4]; 3AP local injection in the cerebellum, daytime, FIG. 2A, WT 29.32) was 14.32±1.02 rpm, the “motor learning, percentage change in rotarod performance” value (shortened to “motor learning, percentage change”) (C57BU6J mice [4]; training time 5 min, Wild Type 76.4) was −4.8 ± 4.22% and the “motor learning, percentage change” value (C57BU6J mice [4]; training time 10 min, Wild Type 88.6) was −4.1 ± 7.32%. For the same compound, the “motor learning, percentage change” value (C57BU6J mice [4]; training time 15 min, Wild Type 95.46) was −4.5 ± 4.12%, the rotarod-based motor behavior (C57BU6J mice [4]; day, WT day 28.00) was 14.57±1.38 rpm and the rotarod-based motor behavior (C57BU6J mice [4]; night, WT night 17.25) was 15.22±0.78 rpm. For the same compound, the rotarod performance (C57BU6J mice [4]; local 3AP-intoxicated mice without Bmal1 viral vector, FIG. 4G, wildtype 30) was 14.2±0.130 rpm, the “slips in the elevated beam test” value (C57BU6J mice [5]; 3AP local injection in the cerebellum, FIG. 2B, WT 0.87) was 10.46±0.92 and the “number of slips, elevated beam” value (C57BU6J mice [5]; 3AP-induced ataxia mice, day, FIG. 1D, WT day 0.93) was 10.23±0.23. For the same compound, the “number of slips, elevated beam” value (C57BU6J mice [5]; 3AP-induced ataxia mice, night, FIG. 1D, WT night 9.92) was 10.24±0.23, the “number of slips, elevated beam” value (C57BU6J mice [5]; local 3AP-intoxicated mice without Bmal1 viral vector, FIG. 4H, wildtype 0.85) was 10.7±0.176 and the “expression of calbindin in the Purkinje cell layer (relative intensity)” value (Calbindin) was 0.123±0.052. The “Tyrosine Hydrolase (TH) expression in substantia nigra compacta (SNc)” value (Tyrosine Hydrolase (TH)) was “similarly expressed”, the “Relative level of mRNA, Bmal1” value (Bmal1; 25 mg 3AP, Cerebellum) was 0.82 and the “Relative level of mRNA, Bmal1” value (Bmal1; 25 mg 3AP, Inferior Olive) was 0.85. For the same compound, the “Relative level of mRNA, Bmal1” value (Bmal1; 25 mg 3AP, Motor cortex) was 0.93, the “Relative level of mRNA, Bmal1” value (Bmal1; 25 mg 3AP, Striatum) was 0.94 and the “Relative level of mRNA, Bmal1” value (Bmal1; 35 mg 3AP, Cerebellum, 0.00 = extremely low concentration or the absence of the gene tested) was 0.00***. For the same compound, the “Relative level of mRNA, Bmal1” value (Bmal1; 35 mg 3AP, Inferior Olive, 0.00 = extremely low concentration or the absence of the gene tested) was 0.00***, the “Relative level of mRNA, Bmal1” value (Bmal1; 35 mg 3AP, Motor cortex, 0.00 = extremely low concentration or the absence of the gene tested) was 0.00*** and the “Relative level of mRNA, Bmal1” value (Bmal1; 35 mg 3AP, Striatum, 0.00 = extremely low concentration or the absence of the gene tested) was 0.00***. For the same compound, the “mRNA expression of Bmal1” value (Bmal1; local 3AP-intoxicated mice vs wildtype control, daytime, FIG. 3B) was “far reduced”, the “Relative level of mRNA, Clock” value (Clock; 25 mg 3AP, Cerebellum) was 0.83 and the “Relative level of mRNA, Clock” value (Clock; 25 mg 3AP, Inferior Olive) was 0.86. For the same compound, the “Relative level of mRNA, Clock” value (Clock; 25 mg 3AP, Motor cortex) was 0.93, the “Relative level of mRNA, Clock” value (Clock; 25 mg 3AP, Striatum) was 0.77 and the “Relative level of mRNA, Clock” value (Clock; 35 mg 3AP, Cerebellum) was 0.94. The “Relative level of mRNA, Clock” value (Clock; 35 mg 3AP, Inferior Olive) was 0.59*, the “Relative level of mRNA, Clock” value (Clock; 35 mg 3AP, Motor cortex) was 0.82 and the “Relative level of mRNA, Clock” value (Clock; 35 mg 3AP, Striatum) was 0.87. The “Relative level of mRNA, Cry1” value (Cry1; 25 mg 3AP, Cerebellum) was 0.82, the “Relative level of mRNA, Cry1” value (Cry1; 25 mg 3AP, Inferior Olive) was 0.74 and the “Relative level of mRNA, Cry1” value (Cry1; 25 mg 3AP, Motor cortex) was 0.87. For the same compound, the “Relative level of mRNA, Cry1” value (Cry1; 25 mg 3AP, Striatum) was 0.91, the “Relative level of mRNA, Cry1” value (Cry1; 35 mg 3AP, Cerebellum) was 0.66 and the “Relative level of mRNA, Cry1” value (Cry1; 35 mg 3AP, Inferior Olive) was 0.70. The “Relative level of mRNA, Cry1” value (Cry1; 35 mg 3AP, Motor cortex) was 0.68, the “Relative level of mRNA, Cry1” value (Cry1; 35 mg 3AP, Striatum) was 0.89 and the “Relative level of mRNA, Per1” value (Per1; 25 mg 3AP, Cerebellum) was 0.81. For the same compound, the “Relative level of mRNA, Per1” value (Per1; 25 mg 3AP, Inferior Olive) was 0.88, the “Relative level of mRNA, Per1” value (Per1; 25 mg 3AP, Motor cortex) was 0.87 and the “Relative level of mRNA, Per1” value (Per1; 25 mg 3AP, Striatum) was 0.76. For the same compound, the “Relative level of mRNA, Per1” value (Per1; 35 mg 3AP, Cerebellum) was 0.77, the “Relative level of mRNA, Per1” value (Per1; 35 mg 3AP, Inferior Olive) was 0.90 and the “Relative level of mRNA, Per1” value (Per1; 35 mg 3AP, Motor cortex) was 0.87. The “Relative level of mRNA, Per1” value (Per1; 35 mg 3AP, Striatum) was 0.86.
